In patent publication US8987301B2, “Heteroarylaminoquinolines as TGF-beta receptor kinase inhibitors” (Merck Patent GmbH, priority 2009, dated 2015):

target: T1, TβR (GST-ALK5) (Homo sapiens, UniProt P36897); assay: In-vitro (enzyme) flashplate kinase assay, TβR activity; type: biochemical; details: GST-ALK5, GST-SMAD2 substrate, 3 mM ATP
T1 sequence (P36897 34-503): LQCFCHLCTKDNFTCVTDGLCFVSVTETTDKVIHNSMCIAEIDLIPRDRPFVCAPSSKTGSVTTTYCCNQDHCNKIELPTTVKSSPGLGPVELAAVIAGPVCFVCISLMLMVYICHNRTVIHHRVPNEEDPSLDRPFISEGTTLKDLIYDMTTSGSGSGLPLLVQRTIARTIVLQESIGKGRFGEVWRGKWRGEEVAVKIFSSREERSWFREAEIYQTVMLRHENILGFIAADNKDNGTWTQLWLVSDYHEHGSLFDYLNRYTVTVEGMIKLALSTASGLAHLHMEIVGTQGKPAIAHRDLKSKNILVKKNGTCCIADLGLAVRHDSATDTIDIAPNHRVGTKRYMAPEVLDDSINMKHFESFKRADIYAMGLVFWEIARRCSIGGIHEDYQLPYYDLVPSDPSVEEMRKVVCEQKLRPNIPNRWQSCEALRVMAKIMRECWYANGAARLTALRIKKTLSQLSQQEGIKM
Experimental: In-Vitro (Enzyme) Assay for Determination of the Efficacy of Inhibitors of the Inhibition of TGF-Beta-Mediated Effects
The kinase assay was carried out as 384-well flashplate assay. […] The reaction was stopped using 25 μl of 200 mM EDTA solution, filtered with suction at room temperature after 30 min, and the wells were washed with 3 times 100 μl of 0.9% NaCl solution. Radioactivity was measured in the TopCount. The IC50 values were calculated using RS1. Above and below, all temperatures were indicated in ° C.

SMILES	IC50
Fc1ccc(Cl)cc1-c1cc(Nc2ccncn2)c2ccccc2n1 [compound 003]	< 0.5 µM
Fc1ccc(Cl)cc1-c1cc(Cc2ccncc2)c2ccccc2n1 [compound 004]	> 10 µM
Fc1ccc(Cl)cc1-c1cc(Nc2ccccn2)c2ccccc2n1 [compound 005]	> 10 µM
Fc1ccc(Cl)cc1-c1cc(Oc2ccncc2)c2ccccc2n1 [compound 006]	> 10 µM
CN(c1ccncc1)c1cc(-c2cc(Cl)ccc2F)nc2ccccc12 [compound 007]	0.5 to 1 µM
Fc1ccc(Cl)cc1-c1cc(Nc2ccncc2C(F)(F)F)c2ccccc2n1 [compound 008]	< 0.5 µM
O=C(Nc1cc(-c2cc(Cl)ccc2F)nc2ccccc12)c1ccncc1 [compound 009]	1 to 10 µM
O=C(Nc1cc(-c2cc(Cl)ccc2F)nc2ccccc12)c1cccnc1 [compound 010]	1 to 10 µM
Fc1ccc(Cl)cc1-c1cc(Sc2ccncc2)c2ccccc2n1 [compound 011]	1 to 10 µM
Fc1ccc(Cl)cc1-c1cc(Nc2cccnc2)c2ccccc2n1 [compound 012]	> 10 µM
Fc1ccc(Cl)cc1-c1cc(Nc2ccnc3ccccc23)c2ccccc2n1 [compound 013]	< 0.5 µM
Fc1ccc(Cl)cc1-c1cc(-n2ccc3cnccc32)c2ccccc2n1 [compound 014]	< 0.5 µM
CN1CCN(c2nccc(Nc3cc(-c4cc(Cl)ccc4F)nc4ccccc34)n2)CC1 [compound 015]	> 10 µM
Fc1ccc(Cl)cc1-c1cc(Nc2cn[nH]c2)c2ccccc2n1 [compound 016]	< 0.5 µM
Fc1ccc(Cl)cc1-c1cc(N(c2ccncn2)c2cc(-c3cc(Cl)ccc3F)nc3ccccc23)c2ccccc2n1 [compound 017]	1 to 10 µM
O=[N+]([O-])c1cnccc1Nc1cc(-c2cc(Cl)ccc2F)nc2ccccc12 [compound 018, [2-(5-Chloro-2-fluoro-phenyl)-quinolin-4-yl]-(3-nitro-pyridin-4-yl)-amine]	1 to 10 µM
Nc1cnccc1Nc1cc(-c2cc(Cl)ccc2F)nc2ccccc12 [compound 019]	< 0.5 µM
Fc1ccc(Cl)cc1-c1cc(Nc2ccnnc2)c2ccccc2n1 [compound 020]	< 0.5 µM
Fc1ccc(Cl)cc1-c1cc(Nc2ccnc(Cl)c2)c2ccccc2n1 [compound 021]	1 to 10 µM
Fc1ccc(Cl)cc1-c1cc(Nc2ccnc(N(c3ccnc(Cl)c3)c3cc(-c4cc(Cl)ccc4F)nc4ccccc34)c2)c2ccccc2n1 [compound 022]	1 to 10 µM
O=c1[nH]c2cnccc2n1-c1cc(-c2cc(Cl)ccc2F)nc2ccccc12 [compound 023, N*4*-[2-(5-Chloro-2-fluoro-phenyl)-quinolin-4-yl]-pyridine-3,4-diamine urea]	< 0.5 µM

SMILES	IC50
Fc1ccc(Cl)cc1-c1cc(Nc2ccnc3cccnc23)c2ccccc2n1 [compound 024]	< 0.5 µM
O=S1(=O)Nc2cnccc2N1c1cc(-c2cc(Cl)ccc2F)nc2ccccc12 [compound 025]	< 0.5 µM
Cc1nc2cnccc2n1-c1cc(-c2cc(Cl)ccc2F)nc2ccccc12 [compound 026]	0.5 to 1 µM
CN1CCC(C(=O)Nc2cnccc2Nc2cc(-c3cc(Cl)ccc3F)nc3ccccc23)CC1 [compound 027]	< 0.5 µM
CN1CCC(c2nc3cnccc3n2-c2cc(-c3cc(Cl)ccc3F)nc3ccccc23)CC1 [compound 028]	> 10 µM
Nc1ccncc1Nc1cc(-c2cc(Cl)ccc2F)nc2ccccc12 [compound 029]	> 10 µM
O=S(=O)(CC(F)(F)F)Nc1cnccc1Nc1cc(-c2cc(Cl)ccc2F)nc2ccccc12 [compound 030]	1 to 10 µM
CN(C)C(=O)Nc1cnccc1Nc1cc(-c2cc(Cl)ccc2F)nc2ccccc12 [compound 031]	< 0.5 µM
Fc1ccc(Cl)cc1-c1cc(Nc2ccnc3[nH]ccc23)c2ccccc2n1 [compound 032]	> 10 µM
O=C(Nc1cnccc1Nc1cc(-c2cc(Cl)ccc2F)nc2ccccc12)C(F)(F)F [compound 033]	1 to 10 µM
O=c1[nH]c2cnccc2n1-c1cc(-c2ccccc2F)nc2ccccc12 [compound 034]	0.5 to 1 µM
Nc1ccnc(Nc2cc(-c3cc(Cl)ccc3F)nc3ccccc23)c1 [compound 035]	> 10 µM
Fc1ccc(Cl)cc1-c1cc(Nc2cc(Nc3cc(-c4cc(Cl)ccc4F)nc4ccccc34)ncn2)c2ccccc2n1 [compound 036]	> 10 µM
Nc1cc(N(c2cc(-c3cc(Cl)ccc3F)nc3ccccc23)c2cc(-c3cc(Cl)ccc3F)nc3ccccc23)ncn1 [compound 037]	1 to 10 µM
Nc1cc(Nc2cc(-c3cc(Cl)ccc3F)nc3ccccc23)ncn1 [compound 038]	< 0.5 µM
CCOC(=O)n1c(=O)n(-c2cc(-c3cc(Cl)ccc3F)nc3ccccc23)c2ccncc21 [compound 039]	< 0.5 µM
CS(=O)(=O)Nc1cnccc1N(c1cc(-c2cc(Cl)ccc2F)nc2ccccc12)S(C)(=O)=O [compound 040]	1 to 10 µM
O=S(=O)(O)Nc1cnccc1Nc1cc(-c2cc(Cl)ccc2F)nc2ccccc12 [compound 041]	1 to 10 µM
COc1ccc(-c2cc(Nc3ccncc3)c3ccccc3n2)cc1 [compound 042]	0.5 to 1 µM
Fc1ccc(F)c(-c2cc(Nc3ccncc3)c3ccccc3n2)c1 [compound 043]	< 0.5 µM
Fc1ccccc1-c1cc(Nc2ccncc2)c2ccccc2n1 [compound 044]	< 0.5 µM

SMILES	IC50
Fc1ccccc1-c1cc(Nc2ccncn2)c2ccccc2n1 [compound 045]	< 0.5 µM
Fc1ccccc1-c1cc(Nc2ccncc2C(F)(F)F)c2ccccc2n1 [compound 046]	< 0.5 µM
c1ccc2c(Nc3ccncc3)cc(C3CCCCC3)nc2c1 [compound 047]	1 to 10 µM
Clc1ccc(Cl)c(-c2cc(Nc3ccncc3)c3ccccc3n2)c1 [compound 048]	< 0.5 µM
COc1cccc(-c2cc(Nc3ccncc3)c3ccccc3n2)c1 [compound 049]	0.5 to 1 µM
Clc1ccccc1-c1cc(Nc2ccncc2)c2ccccc2n1 [compound 050]	< 0.5 µM
FC(F)(F)c1cccc(-c2cc(Nc3ccncc3)c3ccccc3n2)c1 [compound 051]	< 0.5 µM
COc1ccccc1-c1cc(Nc2ccncc2)c2ccccc2n1 [compound 052]	1 to 10 µM
O=c1[nH]c2cnccc2n1-c1c(O)c(-c2cc(Cl)ccc2F)nc2ccccc12 [compound 053]	1 to 10 µM
CN(C)CC(=O)Nc1cnccc1Nc1cc(-c2cc(Cl)ccc2F)nc2ccccc12 [compound 054]	< 0.5 µM
N#Cc1cccc(-c2cc(Nc3ccncc3)c3ccccc3n2)c1 [compound 055]	1 to 10 µM
Fc1ccc(C(F)(F)F)cc1-c1cc(Nc2ccncc2)c2ccccc2n1 [compound 056]	< 0.5 µM
c1ccc(-c2cc(Nc3ccncc3)c3ccccc3n2)nc1 [compound 057]	< 0.5 µM
FC(F)(F)c1ccc(Cl)cc1-c1cc(Nc2ccncc2)c2ccccc2n1 [compound 058]	> 10 µM
Clc1cccc(-c2cc(Nc3ccncc3)c3ccccc3n2)c1 [compound 059]	< 0.5 µM
Fc1ccc(Cl)cc1-c1cc(NCc2ccncc2)c2ccccc2n1 [compound 060]	> 10 µM
CN1CCN(C(=O)Nc2cnccc2N(C(=O)N2CCN(C)CC2)c2cc(-c3cc(Cl)ccc3F)nc3ccccc23)CC1 [compound 061]	> 10 µM
CN1CCN(C(=O)Nc2cnccc2Nc2cc(-c3cc(Cl)ccc3F)nc3ccccc23)CC1 [compound 062]	0.5 to 1 µM
Fc1ccc(Cl)cc1-c1cc(Oc2cccnc2)c2ccccc2n1 [compound 063]	> 10 µM
